Earlier results in paper PMC7070407, “Moringin, A Stable Isothiocyanate from Moringa oleifera, Activates the Somatosensory and Pain Receptor TRPA1 Channel In Vitro” (Molecules, 2020).

Biological target: T1, rat TRPA1 (Rattus norvegicus, UniProt Q6RI86)
T1 construct: expressed in transfected cells; host or cells: HEK-293
Design: method as in PMID 28903060
Settings: TRPA1 in vitro; cited from earlier work

T1 sequence (Q6RI86 whole entry): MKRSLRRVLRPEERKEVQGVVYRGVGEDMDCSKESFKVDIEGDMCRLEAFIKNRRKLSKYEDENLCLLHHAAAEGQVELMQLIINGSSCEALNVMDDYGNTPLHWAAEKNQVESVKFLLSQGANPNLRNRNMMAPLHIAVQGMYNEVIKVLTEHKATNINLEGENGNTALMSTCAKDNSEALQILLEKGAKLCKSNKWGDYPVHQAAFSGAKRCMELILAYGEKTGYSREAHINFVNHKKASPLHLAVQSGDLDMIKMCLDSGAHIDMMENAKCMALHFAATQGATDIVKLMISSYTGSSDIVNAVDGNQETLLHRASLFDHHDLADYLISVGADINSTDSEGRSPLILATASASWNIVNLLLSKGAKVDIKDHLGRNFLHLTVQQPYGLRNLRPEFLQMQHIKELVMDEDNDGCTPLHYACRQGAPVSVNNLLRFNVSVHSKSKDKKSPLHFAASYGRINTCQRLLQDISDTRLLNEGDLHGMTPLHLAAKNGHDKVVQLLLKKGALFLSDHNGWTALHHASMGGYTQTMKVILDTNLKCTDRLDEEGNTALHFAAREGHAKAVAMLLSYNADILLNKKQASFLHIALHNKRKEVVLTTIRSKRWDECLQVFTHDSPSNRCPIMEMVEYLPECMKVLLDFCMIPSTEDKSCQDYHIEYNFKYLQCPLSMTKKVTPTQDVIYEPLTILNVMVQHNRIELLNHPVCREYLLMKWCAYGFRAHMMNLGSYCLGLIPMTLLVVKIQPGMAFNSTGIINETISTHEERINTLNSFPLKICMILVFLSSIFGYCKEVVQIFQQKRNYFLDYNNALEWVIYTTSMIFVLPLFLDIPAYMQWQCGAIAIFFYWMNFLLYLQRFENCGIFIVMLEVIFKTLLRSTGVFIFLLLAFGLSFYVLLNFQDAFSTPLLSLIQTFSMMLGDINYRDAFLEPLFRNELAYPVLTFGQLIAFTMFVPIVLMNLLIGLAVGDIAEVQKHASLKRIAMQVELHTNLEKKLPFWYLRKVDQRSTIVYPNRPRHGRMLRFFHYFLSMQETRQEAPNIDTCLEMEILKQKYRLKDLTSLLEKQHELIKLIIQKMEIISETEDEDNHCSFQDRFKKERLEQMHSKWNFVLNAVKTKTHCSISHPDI

## COc1cc(/C=C/C(=O)CC(=O)/C=C/c2ccc(O)c(OC)c2)ccc1O [curcumin]
  EC50: 3.3 µM
